Entries after “also recorded” stand apart in the source; their conditions may differ. Read-outs that look alike come from different tables or passages of the source.

Series [1] relates to C4-2 CRPC cells expressing histone H2B-mCherry and mEmerald-tubulin. Kind of series: Time-lapse live-cell microscopy and spindle orientation analysis. In kind it is cell-based. Particulars: for frequency of division not parallel to the growth surface: live-cell microscopy; for spindle orientation / spindle rotation during mitosis: net angular displacement and cumulative angular distance. As to the method:
C4-2 CRPC cells expressing histone H2B-mCherry and mEmerald-tubulin. were plated in 12-well plates in phenol red free media, the following day drugs were added as indicated and the cells were imaged on a EVOS™ FL Auto Cell Imaging System equipped with an onstage incubator to maintain 37° C., adequate humidity, and 5% CO2. Images were acquired at 15-minute intervals for 72 hours using a 20× objective lens. For the rotation analysis, the angle of the spindles major axis was tracked starting from when it was first apparent, prometaphase, until telophase. The net angular displacement is the total change in angle of the spindle during mitosis from start until finish and is the absolute value of the sum of all stepwise rotations. The cumulative angular distance is the total amount of rotation regardless of direction that occurred during mitosis and is the sum of the absolute value of all rotations.

For series [2], the system named is C4-2 CRPC cells. Kind of series: Identification of mitotic (pHH3) and apoptotic (cleaved caspase-3) cells by flow cytometry. Type of series: cell-based. As to conditions: drug added to onvansertib. As to the method: C4-2 CRPC cells were plated in 6-well plates at a density of 300,000 cells per well and a total volume of 3 mls. The following day the indicated drugs were diluted in the appropriate growth media while maintaining a constant final concentration of DMSO and added to the wells. After the indicated amount of time cells were harvested by trypsinization. The media, trypsin and PBS wash were collected together to avoid loss of loosely attached or detached cells. Cells were fixed in 4% formaldehyde in PBS for 15 minutes, washed with PBS containing 1% bovine serum albumin (PBS-BSA), and then stored in methanol at −20° C. overnight. Cells were then washed twice in PBS-BSA 0.1% Tween-20, incubated with primary antibodies overnight at 4° C., washed with PBS-BSA 0.1% Tween-20 and incubated for 1 hour with fluorescent-dye conjugated secondary antibodies (diluted 1:200, Alexa Fluor, Molecular Probes) at room temperature for 1 hour. Primary antibodies included anti-phospho-serine 10 histone H3 (clone 3H10, Millipore) and anti-active caspase-3 (clone C92-605, BD Pharmingen). The fixed cells were then washed with PBS-BSA 0.1% Tween-20 and resuspended in PBS containing 1 μg/ml 4,6-diamidino-2-phenylindole (DAPI, Molecular Probes) to stain DNA and analyzed using a BD™ LSRII flow cytometer (Becton Dickinson) and the FlowJo™ software package.
For orientation: In flow cytometry, cells or beads pass a laser one at a time.

The test system of series [3] is C4-2 castrate resistant prostate cancer cells. Kind of series: Cell viability (CellTiter-Glo, 72 h) of drug combinations vs Bliss expected. In kind it is cell-based. As to conditions: for tumor cell killing of PLK inhibitor combined with abiraterone, vs expected additive: C4-2 CRPC cells, 72 hours, Bliss independence.
In series [4] the target is several tyrosine kinases and cyclin-dependent kinase 1 (Cdk1). Particulars: cited from earlier work.
Series [5] has as its system Bel-7402, MCF-7, and MIA-PaCa cells xenografts. Particulars: 250 mg/kg; Bel-7402, MCF-7, MIA-PaCa xenografts; cited from earlier work.
The subject of series [6] is BT20 cells xenograft. As to conditions: 200 mg/kg; cited from earlier work.
The conditions of series [7]: cited from earlier work.
Series [8] deals with mouse xenograft models. Particulars: 10 mg/kg and 20 mg/kg on days 1 and 28; cited from earlier work.
For series [9], the system named is various human tumor cell lines. As to conditions: cited from earlier work.
Series [10] deals with PLK1 (Homo sapiens, UniProt P53350). Particulars: cited from earlier work.
The test system of series [11] is skin cancer cell A375. Particulars: read-out: anti-proliferative IC50; cited from earlier work.
Series [12] has as its system prostate cancer cell PC3. Particulars: read-out: anti-proliferative IC50; cited from earlier work.
The subject of series [13] is colorectal cancer cell HT-29. As to conditions: read-out: anti-proliferative IC50; cited from earlier work.
For series [14], the system named is breast cancer cell MDA-MB-468. As to conditions: read-out: anti-proliferative IC50; cited from earlier work.
The test system of series [15] is lung cancer cell line H82. As to conditions: read-out: anti-proliferative IC50; cited from earlier work.
Series [16] concerns HT-29 human colorectal tumors. As to conditions: HT-29 tumors in nude mouse, cited from earlier work.
In series [17] the test system is several tumor cell lines, including those that express MDR1. As to conditions: including lines that express multidrug-resistant protein 1 (MDR1); cited from earlier work.
For series [18] the following is noted: cited from earlier work. This is another data set of the same source.
Series [19] has as its system xenograft tumor models. As to conditions: under proper dose scheduling; cited from earlier work.
For series [20], the system named is Cdc25C-T96 phosphorylation. As to conditions: read-out: EC50, Cdc25C-T96 phosphorylation; cited from earlier work.
The conditions of series [21]: preclinical, cited from earlier work.
Series [22] has as its system cell mitosis. As to conditions: read-out: EC50, inhibition of cell mitosis; cited from earlier work.
Series [23] has as its system HCT116, NCI-H460, and taxane-resistant CXB1 colon carcinoma xenografts. As to conditions: mouse model; ~25 mg/kg/day; cited from earlier work.
For series [24] the following is noted: cited from earlier work. The source holds these as a separate data set.
The subject of series [25] is panel of >50 other kinases. Particulars: concentrations up to 10 μM; in vitro; cited from earlier work.
For series [26] the following is noted: advanced solid tumors; cited from earlier work.
For series [27] the following is noted: cited from earlier work. This is another data set of the same source.
For series [28] the following is noted: doses of 24 to 48 mg/m^2 for 5 consecutive days every 4 weeks; cited from earlier work.
For series [29] the following is noted: cited from earlier work. This is another data set of the same source.

Sequence of PLK1 (P53350 whole entry): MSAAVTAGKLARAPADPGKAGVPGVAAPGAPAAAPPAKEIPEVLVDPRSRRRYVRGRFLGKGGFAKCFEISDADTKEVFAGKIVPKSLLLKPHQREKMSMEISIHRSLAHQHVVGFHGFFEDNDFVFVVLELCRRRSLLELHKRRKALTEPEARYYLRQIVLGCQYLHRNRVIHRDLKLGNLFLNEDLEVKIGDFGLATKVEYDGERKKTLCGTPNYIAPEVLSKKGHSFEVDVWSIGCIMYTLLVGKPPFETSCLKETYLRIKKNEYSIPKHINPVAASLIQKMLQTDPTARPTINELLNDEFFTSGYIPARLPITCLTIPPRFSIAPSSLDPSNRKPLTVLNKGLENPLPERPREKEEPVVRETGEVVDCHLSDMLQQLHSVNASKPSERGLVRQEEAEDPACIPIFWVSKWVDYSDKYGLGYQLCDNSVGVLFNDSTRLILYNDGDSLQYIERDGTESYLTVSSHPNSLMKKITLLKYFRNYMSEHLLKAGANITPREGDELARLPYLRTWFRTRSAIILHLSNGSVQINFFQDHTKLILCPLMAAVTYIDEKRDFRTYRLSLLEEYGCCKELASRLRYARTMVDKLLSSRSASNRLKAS

For `CNC(=O)c1ccc(N2C(=S)N(c3ccc(C#N)c(C(F)(F)F)c3)C(=O)C2(C)C)cc1F` [enzalutamide], in series [1], the “frequency of division not parallel to the growth surface” value was “did not result in these phenotypes” and the “spindle orientation / spindle rotation during mitosis” value was “did not result in these phenotypes”. Also, the “effect on mitotic arrest (pHH3 positive cells) caused by PLK1 inhibitor onvansertib” value in series [2] was “does not enhance the mitotic arrest”. Further, the “more than additive effect with PLK1 inhibitors” value in [3] (C4-2 cells, enzalutamide combined with onvansertib or BI2536) is recorded as “not observed”.
`C[C@]12CC[C@H](O)CC1=CC[C@@H]1[C@@H]2CC[C@]2(C)C(c3cccnc3)=CC[C@@H]12` [abiraterone]: in series [1], the “frequency of division not parallel to the growth surface” value is “increased” and the “spindle orientation / spindle rotation during mitosis” value was “disrupted proper spindle orientation”. For the same molecule, in series [2], the “effect on apoptotic cell death (cleaved Caspase-3 positive cells) after onvansertib” value was “exacerbates subsequent apoptotic cell death” and the “effect on mitotic arrest (pHH3 positive cells) caused by PLK1 inhibitor onvansertib” value is recorded as “dramatically increased the frequency of mitotic arrest; also recorded: enhances the mitotic arrest”.
With `COc1cc(OC)c(/C=C/S(=O)(=O)Cc2ccc(OC)c(NCC(=O)[O-])c2)c(OC)c1.[Na+]` [ON 01910, rigosertib], the IC50 in series [4] is 18 to 260 nM. Moreover, the tumor growth result is “inhibited tumor growth” in [5] and “inhibition of tumor growth” in series [6]. Further, the DLT result in series [7] (at the MTD) is “Grade 3 abdominal pain”. In series [7] (i.v., days 1, 4, 8, 11, 15, and 18 in 28-day cycles), the MTD is given as 3,120 mg.
On to `COc1ccc(S(=O)(=O)Nc2ccccc2/C=C/c2cc[n+]([O-])cc2)cc1` [HMN-176], for which, in series [8], the “antitumor activity in mouse xenograft models” value is given as “potent antitumor activity”. Also, the “cytotoxicity toward various human tumor cell lines” value in series [9] is on record as “potent cytotoxicity”. In [10] (affects subcellular distribution of PLK1 instead), the “enzymatic activity of PLK1” value is “does not directly inhibit”.
Consider `COc1cc(C(=O)NC2CCN(C)CC2)ccc1NC1NCC2C(N1)N(C1CCCC1)CC(F)(F)C(=O)N2C` (stereo not drawn) [RO3280], for which the IC50 is 70 nM in series [11]; 12 nM in [12]; 10 nM in series [13]; 19 nM in [14]; 5 nM in [15]; 3 nM in series [10]. The antitumor activity entry in series [16] (dosed more frequently) is on record as “complete tumor regression”. Moreover, in series [16] (once weekly at 40 mg/kg), the tumor growth inhibition was 72%.
For the molecule `COc1cc(C(=O)NC2CCN(C)CC2)c(F)cc1Nc1ncc2c(n1)N(C1CCCC1)CC(F)(F)C(=O)N2C` [TAK-960], in series [17], the “activity in tumor cell lines” value is recorded as “shown activity”.
On to `C[C@@H](Oc1cc(-n2cnc3ccc(CN4CCN(C)CC4)cc32)sc1C(N)=O)c1ccccc1C(F)(F)F` [GSK461364], for which, in series [18] (i.v., schedules A and B, 28-day cycle), the DLTs entry is “grade 4 neutropenia, sepsis, and pulmonary embolism”. For the same molecule, the “incidence of venous thrombotic emboli (VTE)” value in series [18] (in vivo) is recorded as 20%. Also, the “final recommended phase II dose” value in [18] (intravenously, schedule A (days 1, 8, and 15)) was 225 mg. In addition, in series [19], the “effect in xenograft tumor models” value was “tumor regression”. For the same molecule, the “tumor cell killing of PLK inhibitor combined with abiraterone, vs expected additive” value in series [3] is “more than additive”.
As to `Cc1ncc(CCCN(C)C)cc1Nc1ncc2c(n1)-c1ccc(C(F)(F)F)cc1NC(=S)C2` [MLN0905], the concentration giving a half-maximal response (EC50) in series [20] was 29 nM; in [22], 9 nM. Also, the maximum tolerated dose in series [21] (QD (daily) schedule) is given as 6.25 mg/kg; in series [21] (QD×3/wk (3-days on/4-days off) schedule), 14.5 mg/kg.
For the molecule `CC[C@@H]1C(=O)N(C)c2cnc(Nc3ccc(C(=O)N[C@H]4CC[C@H](N5CCN(CC6CC6)CC5)CC4)cc3OC)nc2N1C(C)C` [BI6727, volasertib], the “growth of multiple human carcinoma xenografts” value in series [23] was “significantly inhibits the growth”. Besides, the “recommended dose for further development” value in series [24] (based on overall tolerability) is recorded as 300 mg. Also, the MTD in series [24] (i.v. once every 3 weeks, advanced solid tumors) is 400 mg. Besides, the DLTs result in [24] (i.v. once every 3 weeks, dose escalation 12-450 mg) is “neutropenia, thrombocytopenia, and febrile neutropenia”. In addition, the “inhibitory activity against a panel of >50 other kinases” value in [25] is “no inhibitory activity”. Moreover, the “MTD in combination with afatinib” value in [26] is on record as 300 mg. In addition, in series [3], the “tumor cell killing of PLK inhibitor combined with abiraterone, vs expected additive” value was “more than additive”.
Turning to `CC(=O)O[C@H]1CC[C@@]2(C)C(=CC[C@@H]3[C@@H]2CC[C@]2(C)C(c4cccnc4)=CC[C@@H]32)C1` [Abiraterone acetate, abiraterone acetate], the solubility in water entry in series [27] is “practically insoluble”.
Turning to `COc1ccc(S(=O)(=O)N(C(C)=O)c2ccccc2/C=C/c2cc[n+]([O-])cc2)cc1` [HMN-214], in series [28], the DLTs entry is “prolonged neutropenia, febrile neutropenia, neutropenic sepsis, electrolyte disturbance, neuropathy, and myalgia”. Also, the dose-limiting toxicities entry in [29] (at 9.9 mg/m^2/d) was “severe myalgia/bone pain syndrome and hyperglycemia”. The “maximum tolerated dose and recommended dose” value in series [29] (continuous 21-day dosing schedule every 28 days) was 8.0 mg/m^2/d.

Usually IC50 stands for the concentration needed to halve the response being measured. Broadly, the EC50 is the concentration at which the effect is half-maximal.

These data come from patent US20220127682A1, “SELECTION AND TREATMENT OF CANCER WITH COMBINATION THERAPIES” (Massachusetts Institute of Technology, priority 2020, published 2022).
